Values of other authors as cited in US9044417B2, “Mineral, nutritional, cosmetic, pharmaceutical, and agricultural compositions and methods for producing the same” (Core Intellectual Properties Holdings, LLC, priority 2003, dated 2015).

Conditions: aqueous solutions of glycolic acid, pH=3.0; general statement for comparison

O=C(O)CO [glycolic acid]
sting or burning when applied to freshly shaven skin: will sting or burn
